Data from publication PMC11984905, “Chiral Switch of Gadopiclenol: New Standards in MRI Probes” (Advanced Science, 2025).

Assay: Kinetic inertness: dissociation of Gd(III)-complexes in 0.01–1.0 M HCl followed by HPLC
Format: physicochemical
Conditions: for k d at pH = 7.4: dissociation rate calculated at pH 7.4, 25 °C; for k1: proton-assisted dissociation, 25 °C, [H+]≤0.15 M: [Na+]+[H+]=0.15 M; for acid-catalyzed dissociation, times slower than Gd(III)-complex with BT-DO3A / acid-catalyzed dissociation, times slower than Gd(III)-complex with HP-DO3A: ratio of k1
Description: The kinetic inertness of the Gd(III)‐complexes with the different isomers formed by rac‐L1 and rac‐L2 was characterized by the rates of the dissociation reactions taking place in 0.01–1.0 M HCl solution. The dissociation reactions were followed by measuring the integral values of the Gd(III)‐complexes with the different isomers of rac‐L1 and rac‐L2 ligands with HPLC. The conditions of the HPLC experiments for the kinetic studies of the Gd(III)‐complexes with rac‐L1 and rac‐L2 ligands are summarized in Tables S1 and S2 (Supporting Information), respectively. The samples were kept at 25 °C in a well‐closed vessel. For the HPLC analysis, 100 µL samples were withdrawn from the solutions. The measurements were performed with 0.2 mM solution of Gd(III)‐complexes. The pseudo‐first‐order rate constants (k d) were calculated by fitting the HPLC integral – t data pairs to Equation (1). (1) At=Ar−Ave^−kdt+Av where A r, A v, and A t are the integral values of the reactants, the product, and reaction time t. The temperature was maintained at 25 °C and the ionic strength of the solutions was kept constant at [H^+]≤0.15 M, [HCl]+[NaCl] = 0.15 M. The calculation of the kinetic parameters was performed by the fitting of the absorbance – time and relaxation rate – time data pairs with the Micromath Scientist computer program (version 2.0, Salt Lake City, UT, USA).
The dissociation reactions of Gd(III)-complexes with the different isomers formed by rac-L1 and rac-L2 have been studied by HPLC method (Tables S1 and S2) at 25 °C in 0.01 – 1.0 M HCl solution to guarantee the pseudo-first-order kinetic condition. Area values as a function of time for the dissociation reactions of Gd(III)-complexes formed with the different stereoisomers of rac-L1 obtained at 25 °C in 1.0 M HCl solution are shown in Figure S48.
In the presence of HCl excess, the decomplexation of Gd(III)-complexes can be treated as a pseudo-first-order process and the reaction rate can be expressed by Equation (S9), where kd is a pseudo-first-order rate constant, [GdL]t and [GdL]tot are the concentrations of the GdL species at time t and the total concentration of the complex, respectively.
The rates of the dissociation reactions have been studied at different concentrations of HCl ([HCl]=0.01 – 1.0 M, 25 °C). The kd values obtained for the Gd(III)-complexes with the different isomers of rac-L1 and rac-L2 ligands as a function of [H^+] are shown in Figures S49 and S50.
The obtained kd pseudo-first order rate constants are directly proportional to the concentration of H^+. The increase in the kd values with increasing concentration of H^+ can be interpreted in terms of the proton assisted dissociation of Gd(III)-complexes. […] The proton assisted dissociation of Gd(III)-complexes might be explained by the equilibrium formation of a protonated *Gd(HL) intermediate (Equation (S11)), which dissociates spontaneously (Equation (12)).
where k0, and k1 = kGdHL×K^HGdHL are the rate constants characterizing the spontaneous and proton-assisted dissociation of Gd(III)-complexes. The protonation constant (K^HGdHL) of Gd(DOTA)-like complexes are very small (Gd(DOTA): K^HGdHL =14).^[22] By considering very low protonation constant of Gd(III)-complexes with A, C and D isomers of rac-L1 and A’, C’ and D’ isomers of rac-L2 ligands (K^HGdHL<<10), the denominator of Equation (S14) (1>> K^HGdHL [H^+]) can be neglected, so Equation (S14) can be simplified in the form of Equation (S15). The k0 and k1 values of the Gd(III) complexes with A, C and D isomers of rac-L1, and A’, C’ and D’ isomers of rac-L2 ligands have been calculated by fitting of the kinetic data (Figures S49 and S50) to Equation (S15).
The k1 rate and logK^HGdHL protonation constants characterizing the acid-catalyzed decomplexation of Gd(III)-complexes formed with the different stereoisomers of rac-L1 and rac-L2 are presented and compared with those of [Gd(PCTA)], [Gd(DOTA)]^-, [Gd(HP-DO3A)] and [Gd(BT-DO3A)] in Table S19.

Compound | k d at pH = 7.4 (listed as RRR/SSS (D′)) | k d at pH = 7.4 (listed as [Gd(rac-L2)] D’ (RRR/SSS)) | k1 | k d at pH = 7.4 (listed as RRR/SSS (C)) | k d at pH = 7.4 (listed as [Gd(rac-L1)] C (RRR/SSS)) | acid-catalyzed dissociation, times slower than Gd(III)-complex with BT-DO3A [times] | acid-catalyzed dissociation, times slower than Gd(III)-complex with HP-DO3A [times]
O=C(CCC(C(=O)[O-])N1CCN(C(CCC(=O)NCC(O)CO)C(=O)[O-])Cc2cccc(n2)CN(C(CCC(=O)NCC(O)CO)C(=O)[O-])CC1)NCC(O)CO.[Gd+3] (stereo not drawn) [[Gd(ent‐L2)]] | RRR/SSS (D′): 1.74 × 10^−13 s^−1 | 1.74×10^-13 s^−1 | (4.4±0.2) ×10^-6 M^-1s^-1 |  |  |  | 
O=C([O-])CCC(C(=O)[O-])N1CCN(C(CCC(=O)[O-])C(=O)[O-])Cc2cccc(n2)CN(C(CCC(=O)[O-])C(=O)[O-])CC1.[Gd+3] (racemic) [[Gd(ent‐L1)]^3−] |  |  | (1.4±0.1) ×10^-6 M^-1s^-1 | RRR/SSS (C): 5.61 × 10^−14 s^−1 | 5.61×10^-14 s^−1 |  | 
O=C(O)CCC(C(=O)O)N1CCN(C(CCC(=O)O)C(=O)O)Cc2cccc(n2)CN(C(CCC(=O)O)C(=O)O)CC1 (stereo not drawn) [ent‐L1] |  |  |  |  |  | 24 | 207
O=C(CCC(C(=O)O)N1CCN(C(CCC(=O)NCC(O)CO)C(=O)O)Cc2cccc(n2)CN(C(CCC(=O)NCC(O)CO)C(=O)O)CC1)NCC(O)CO (stereo not drawn) [ent‐L2] |  |  |  |  |  | 7 | 66
